# Source: patent US4599203A, “Multisulfonated naphthalene ureas useful as complement inhibitors” (American Cyanamid Company, priority 1984, dated 1986)
# Where a name gives a salt, the structure may show the parent alone.
# Assays:
# [1] = molecular target: activated human C1 (Homo sapiens, UniProt P09871); assay: Test Code 026 (C1 inhibitor): protection of fluid phase human C2 from activated human C1 in the presence of C4; assay type: biochemical; settings: serial twofold dilution assay; higher well number indicates higher activity
# [2] = test system: complement system; settings: literature report; cited from earlier work
# [3] = test system: complement; assay: Guinea Pig Intraperitoneal Test (GPIP): serum complement activity after i.p. dosing; assay type: in vivo; settings: 200 mg/kg i.p.; for In vivo Activity Guinea Pigs Intraperitoneal % Lowering, 30 minutes: blood 30 minutes after injection; for In vivo Activity Guinea Pigs Intraperitoneal % Lowering, 60 minutes: blood 60 minutes after injection; for In vivo Activity Guinea Pigs Intraperitoneal % Lowering, 120 minutes: blood 120 minutes after injection
# Experimental: (§1) An active inhibitor protects C2 from C1 and C4; (ii) Test Code 036 (C-Shunt inhibitor)--In this test human erythrocytes rendered fragile are lysed in autologous serum via the shunt pathway activated by cobra venom factor in the presence of appropriate dilutions of the test compound. Inhibition of the shunt pathway results in failure of lysis; (iii) Cap 50 Test--Here, appropriate amounts of the test compound are added to a pool of guinea pig serum in vitro, after which the complement level is determined in undiluted serum by the serum capillary tube assay of U.S. Pat. No. 3,876,376. The concentration of compound inhibiting 50% is reported; and (iv) Guinea Pig Intraperitoneal Test (GPIP)--Guinea pigs weighing about 300 g are dosed intraperitoneally (i.p.) with 200 mg/kg of the test compound dissolved in saline and adjusted to pH 7-8. Approximately 0.4 ml blood samples, taken by orbital sinus puncture 30 minutes and one hour after injections, are collected directly into centrifuge tubes; 5 ml blood samples, taken by decapitation 2 hours after inJection, are collected directly into diSPo® beakers. The samples were allowed to clot, centrifuged, and the resultant sera were assayed for complement activity using the capillary complement assay. Percent inhibition is calculated by comparison with simultaneous controls. The results of the GPIP appear in Table I together with results of Test Code 026, 036 and Cap 50.
# [4] = test system: hereditary angioneurotic edema; settings: literature report; cited from earlier work
# [5] = test system: shunt pathway; assay: Test Code 036 (C-Shunt inhibitor): lysis of fragile human erythrocytes in autologous serum via shunt pathway activated by cobra venom factor; assay type: cell-based; settings: serial twofold dilution assay; higher well number indicates higher activity
# Experimental: as §1, with “The results of the GPIP appear in Table I together with results of Test Code 026, 036 and Cap 50.” left out
compound,measurement,setting,value
"O=C(Nc1ccc(S(=O)(=O)[O-])c2ccc(S(=O)(=O)[O-])cc12)Nc1ccc(S(=O)(=O)[O-])c2ccc(S(=O)(=O)[O-])cc12.[Na+].[Na+].[Na+].[Na+] [4,4'-Ureylenedi-1,6-naphthalenedisulfonic acid, tetrasodium salt]",In vitro Activity C1 026 Wells,[1],+3 Wells
"O=C(Nc1cc(S(=O)(=O)O)cc2cc(S(=O)(=O)O)cc(OS(=O)(=O)c3ccccc3)c12)Nc1cc(S(=O)(=O)O)cc2cc(S(=O)(=O)O)cc(OS(=O)(=O)c3ccccc3)c12 [4,4'-Ureylenebis(5-hydroxy-2,7-naphthalenedisulfonic acid), tetrasodium salt dibenzenesulfonate]",In vitro Activity C1 026 Wells,[1],+3 Wells
"O=C(Nc1cc(S(=O)(=O)[O-])cc2ccc(S(=O)(=O)[O-])cc12)Nc1cc(S(=O)(=O)[O-])cc2ccc(S(=O)(=O)[O-])cc12.[Na+].[Na+].[Na+].[Na+] [4,4'-Ureylenedi-2,6-naphthalenedisulfonic acid, tetrasodium salt]",In vitro Activity C1 026 Wells,[1],+2 Wells
heparin,anti-complementary effect,[2],anti-complementary effect
"Nc1ccc2cc(S(=O)(=O)[O-])cc(O)c2c1N=Nc1ccc(NC(=O)Nc2ccc(N=Nc3c(N)ccc4cc(S(=O)(=O)[O-])cc(O)c34)c(S(=O)(=O)[O-])c2)cc1S(=O)(=O)[O-].[Na+].[Na+].[Na+].[Na+] [chlorazol fast pink, 3,3'-ureylenebis[6-(2-amino-8-hydroxy-6-sulfo-1-naphthylazo)benzenesulfonic acid], tetrasodium salt]",anti-complementary effect,[2],anti-complementary effect
"O=C(Nc1ccc(S(=O)(=O)[O-])c2ccccc12)Nc1ccc(S(=O)(=O)[O-])c2ccccc12.[Na+].[Na+] [4,4'-Ureylenedi-1-naphthalenesulfonic acid, disodium salt]",In vitro Activity C1 026 Wells,[1],+2 Wells
"O=C(Nc1cc(S(=O)(=O)[O-])cc2cc(S(=O)(=O)[O-])cc(S(=O)(=O)[O-])c12)Nc1cc(S(=O)(=O)[O-])cc2cc(S(=O)(=O)[O-])cc(S(=O)(=O)[O-])c12.[Na+].[Na+].[Na+].[Na+].[Na+].[Na+] [8,8'-Ureylenedi-1,3,6-naphthalenetrisulfonic acid, hexasodium salt]",In vitro Activity C1 026 Wells,[1],+5 Wells
same,"In vivo Activity Guinea Pigs Intraperitoneal % Lowering, 30 minutes",[3],25%
same,"In vivo Activity Guinea Pigs Intraperitoneal % Lowering, 60 minutes",[3],61%
same,"In vivo Activity Guinea Pigs Intraperitoneal % Lowering, 120 minutes",[3],65%
"O=C(Nc1cc(S(=O)(=O)[O-])cc2cccc(S(=O)(=O)[O-])c12)Nc1cc(S(=O)(=O)[O-])cc2cccc(S(=O)(=O)[O-])c12.[Na+].[Na+].[Na+].[Na+] [8,8'-Ureylenedi-1,6-naphthalenedisulfonic acid, tetrasodium salt]",In vitro Activity C1 026 Wells,[1],+3 Wells
NCCCCCC(=O)O [epsilon-aminocaproic acid],treatment of hereditary angioneurotic edema,[4],used with success
"O=C(Nc1ccc2cc(S(=O)(=O)O)cc(O)c2c1)Nc1ccc2cc(S(=O)(=O)O)cc(O)c2c1 [7,7'-ureylenebis(1-hydroxy-3-naphthalenesulfonic acid)]",In vitro Activity C1 026 Wells,[1],+2 Wells
"O=C(Nc1ccc2c(O)cc(S(=O)(=O)O)cc2c1)Nc1ccc2c(O)cc(S(=O)(=O)O)cc2c1 [6,6'-ureylenebis(1-hydroxy-3-naphthalenesulfonic acid)]",In vitro Activity C1 026 Wells,[1],+1 Wells
"O=C(Nc1cc(S(=O)(=O)[O-])cc2cc(S(=O)(=O)[O-])ccc12)Nc1cc(S(=O)(=O)[O-])cc2cc(S(=O)(=O)[O-])ccc12.[Na+].[Na+].[Na+].[Na+] [4,4'-Ureylenedi-2,7-naphthalenedisulfonic acid, tetrasodium salt]",In vitro Activity C1 026 Wells,[1],+3 Wells
"O=C(Nc1ccc(S(=O)(=O)[O-])c2cc(S(=O)(=O)[O-])cc(S(=O)(=O)[O-])c12)Nc1ccc(S(=O)(=O)[O-])c2cc(S(=O)(=O)[O-])cc(S(=O)(=O)[O-])c12.[Na+].[Na+].[Na+].[Na+].[Na+].[Na+] [8,8'-Ureylenedi-1,3,5-naphthalenetrisulfonic acid, hexasodium salt]","In vivo Activity Guinea Pigs Intraperitoneal % Lowering, 30 minutes",[3],92%
same,"In vivo Activity Guinea Pigs Intraperitoneal % Lowering, 60 minutes",[3],92%
same,"In vivo Activity Guinea Pigs Intraperitoneal % Lowering, 120 minutes",[3],94%
"O=C(Nc1cc2ccc(S(=O)(=O)[O-])cc2cc1S(=O)(=O)[O-])Nc1cc2ccc(S(=O)(=O)[O-])cc2cc1S(=O)(=O)[O-].[Na+].[Na+].[Na+].[Na+] [3,3'-Ureylenedi-2,7-naphthalenedisulfonic acid, tetrasodium salt]",In vitro Activity C1 026 Wells,[1],+3 Wells
"O=C(Nc1cc(S(=O)(=O)[O-])c2cc(S(=O)(=O)[O-])cc(S(=O)(=O)[O-])c2c1)Nc1cc(S(=O)(=O)[O-])c2cc(S(=O)(=O)[O-])cc(S(=O)(=O)[O-])c2c1.[Na+].[Na+].[Na+].[Na+].[Na+].[Na+] [7,7'-Ureylenedi-1,3,5-naphthalenetrisulfonic acid, hexasodium salt]",In vitro Activity C1 026 Wells,[1],+6 Wells
same,In vitro Activity C-Shunt Inhibition 036 Wells,[5],+1 Wells
NC[C@H]1CC[C@H](C(=O)O)CC1 [tranexamic acid],treatment of hereditary angioneurotic edema,[4],used with success
"O=S(=O)([O-])c1cc(NC(=S)Nc2cc(S(=O)(=O)[O-])cc3cc(S(=O)(=O)[O-])cc(S(=O)(=O)[O-])c23)c2c(S(=O)(=O)[O-])cc(S(=O)(=O)[O-])cc2c1.[Na+].[Na+].[Na+].[Na+].[Na+].[Na+] [8,8'-(2-Thioureylene)di-1,3,6-naphthalenetrisulfonic acid, hexasodium salt]",In vitro Activity C1 026 Wells,[1],+5 Wells
same,"In vivo Activity Guinea Pigs Intraperitoneal % Lowering, 30 minutes",[3],41%
same,"In vivo Activity Guinea Pigs Intraperitoneal % Lowering, 60 minutes",[3],20%
same,"In vivo Activity Guinea Pigs Intraperitoneal % Lowering, 120 minutes",[3],42%
"O=C(Nc1ccc2c(S(=O)(=O)[O-])cc(S(=O)(=O)[O-])cc2c1)Nc1ccc2c(S(=O)(=O)[O-])cc(S(=O)(=O)[O-])cc2c1.[Na+].[Na+].[Na+].[Na+] [6,6'-Ureylenedi-1,3-naphthalenedisulfonic acid, tetrasodium salt]",In vitro Activity C1 026 Wells,[1],+3 Wells
"O=C(Nc1cc2c(O)cc(S(=O)(=O)[O-])cc2cc1S(=O)(=O)[O-])Nc1cc2c(O)cc(S(=O)(=O)[O-])cc2cc1S(=O)(=O)[O-].[Na+].[Na+].[Na+].[Na+] [3,3'-Ureylenebis(5-hydroxy-2,7-naphthalenedisulfonic acid), tetrasodium salt]",In vitro Activity C1 026 Wells,[1],+4 Wells
same,"In vivo Activity Guinea Pigs Intraperitoneal % Lowering, 30 minutes",[3],4%
same,"In vivo Activity Guinea Pigs Intraperitoneal % Lowering, 60 minutes",[3],1%
same,"In vivo Activity Guinea Pigs Intraperitoneal % Lowering, 120 minutes",[3],28%
"O=C(Nc1cc(S(=O)(=O)[O-])c2cc([N+](=O)[O-])cc(S(=O)(=O)[O-])c2c1)Nc1cc(S(=O)(=O)[O-])c2cc([N+](=O)[O-])cc(S(=O)(=O)[O-])c2c1.[Na+].[Na+].[Na+].[Na+] [3,3'-Ureylenebis(7-nitro-1,5-naphthalenedisulfonic acid), tetrasodium salt]",In vitro Activity C1 026 Wells,[1],+3 Wells
